From PubChem BioAssay (NCI)
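A five-concentration, 48-hour dose response in 96-well plates underlies each endpoint, interpolated linearly between surrounding concentrations. GI50 = concentration required for 50% inhibition of growth. At the TGI there is no net growth.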

Tests used:
Assay in all cases: DTP human tumour cell line panel, 48 h
RPMI-8226 leukemia = test system: RPMI-8226 leukemia
K-562 leukemia = test system: K-562 leukemia
CCRF-CEM leukemia = test system: CCRF-CEM leukemia
MOLT-4 leukemia = test system: MOLT-4 leukemia
UACC-62 melanoma = test system: UACC-62 melanoma
HL-60(TB) leukemia = test system: HL-60(TB) leukemia
NCI-H23 lung = test system: NCI-H23 lung
SK-MEL-5 melanoma = test system: SK-MEL-5 melanoma
TK-10 renal = test system: TK-10 renal
NCI/ADR-RES ovarian = test system: NCI/ADR-RES ovarian
OVCAR-8 ovarian = test system: OVCAR-8 ovarian
MDA-MB-435 = test system: MDA-MB-435
OVCAR-4 ovarian = test system: OVCAR-4 ovarian

`O=C1NC(=O)c2c1c1c3ccccc3ccc1c1[nH]c3ccc(Br)cc3c21` gave a GI50 (RPMI-8226 leukemia) of 501 nM, a TGI (RPMI-8226 leukemia) of 2870 nM and a GI50 (K-562 leukemia) of 789 nM. For the same molecule, the TGI (K-562 leukemia) was > 100000 nM, the GI50 (CCRF-CEM leukemia) was 1220 nM and the TGI (CCRF-CEM leukemia) was > 100000 nM. The GI50 (MOLT-4 leukemia) was 1190 nM, the TGI (MOLT-4 leukemia) was 4030 nM and the GI50 (UACC-62 melanoma) was 1910 nM. It also gave a TGI (UACC-62 melanoma) of 3870 nM, a GI50 (HL-60(TB) leukemia) of 1750 nM and a TGI (HL-60(TB) leukemia) of 6290 nM. The GI50 (NCI-H23 lung) was 1460 nM, the TGI (NCI-H23 lung) was 4480 nM and the GI50 (SK-MEL-5 melanoma) was 1560 nM. For the same molecule, the TGI (SK-MEL-5 melanoma) was 2940 nM, the GI50 (TK-10 renal) was 2450 nM and the TGI (TK-10 renal) was > 100000 nM. The GI50 (NCI/ADR-RES ovarian) was 1530 nM, the TGI (NCI/ADR-RES ovarian) was 5630 nM and the GI50 (OVCAR-8 ovarian) was 2330 nM. The TGI (OVCAR-8 ovarian) was > 100000 nM, the GI50 (MDA-MB-435) was 1660 nM and the TGI (MDA-MB-435) was 3740 nM. The GI50 (OVCAR-4 ovarian) was 1740 nM and the TGI (OVCAR-4 ovarian) was 4850 nM.
